Test results published in article PMC8666671, “Fine-tuning spermidine binding modes in the putrescine binding protein PotF” (The Journal of Biological Chemistry, 2021).
Positions count from the first letter of the chain named. Where “and” joins values, the source holds several entries; their conditions need not be identical. Equal entries are not always repeated.

Experiments:
PotF/D–S247D = target: T1, PotF/D–S247D (Escherichia coli, UniProt P31133, A182D/D39E/F276W/L348Q/S38T/S87Y); assay: ITC, PotF/D–S247D; format: binding; settings: 293 K
T1 construct: without the N-terminal signal peptide; made in house; host or cells: E. coli BL21 (DE3)
T1 sequence (P31133 27-370 S38T/D39E/S87Y/A182D/F276W/L348Q): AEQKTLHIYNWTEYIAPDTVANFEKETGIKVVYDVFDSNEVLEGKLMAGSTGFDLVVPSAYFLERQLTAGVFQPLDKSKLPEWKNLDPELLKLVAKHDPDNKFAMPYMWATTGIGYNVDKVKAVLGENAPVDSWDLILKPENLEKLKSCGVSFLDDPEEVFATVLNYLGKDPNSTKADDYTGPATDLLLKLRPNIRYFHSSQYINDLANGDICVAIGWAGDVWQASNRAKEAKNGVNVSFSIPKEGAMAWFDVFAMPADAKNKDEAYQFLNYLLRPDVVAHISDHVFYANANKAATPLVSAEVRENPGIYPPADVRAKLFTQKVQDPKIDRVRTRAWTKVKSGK
Procedure: (§1) Ligands were always freshly prepared in the exact same buffer as was used for the size exclusion run. Samples were degassed, and temperature was equilibrated using a degassing station (TA Instruments). About 400 μl protein sample of different concentrations (Table S5) depending on affinity was transferred into the sample cell of a nanoITC (TA Instruments), and 50 μl of about tenfold concentrated ligand solution was loaded into the injection needle. Multiple injection measurements were carried out at 293 K, 300 rpm stirring rate, and 250 s spacings between each 2 μl injection. The heat quantity past injection was determined by integration of the measured peaks. Every protein–ligand combination was measured as biological triplicate. Subtraction of heat of dilution measurements, peak integration, and one site binding fits were done with NanoAnalyze (TA Instruments). Reported errors are the errors between fits of the measured triplicates.

PotF/D–E39D–Y87S–F88Y = target: T2, PotF/D–E39D–Y87S–F88Y (Escherichia coli, UniProt P31133, A182D/D247S/F276W/F88Y/L348Q/S38T); assay: ITC, PotF/D–E39D–Y87S–F88Y; format: binding; settings: 293 K
T2 construct: without the N-terminal signal peptide; made in house; host or cells: E. coli BL21 (DE3)
T2 sequence (P31133 27-370 S38T/F88Y/A182D/D247S/F276W/L348Q): T1 sequence (P31133 27-370 S38T/D39E/S87Y/A182D/F276W/L348Q) with E13D, Y61S, F62Y, D221S
Procedure: as §1

PotF/D–E39D–F88A = target: T3, PotF/D–E39D–F88A (Escherichia coli, UniProt P31133, A182D/D247S/F276W/F88A/L348Q/S38T/S87Y); assay: ITC, PotF/D–E39D–F88A; format: binding; settings: 293 K
T3 construct: without the N-terminal signal peptide; made in house; host or cells: E. coli BL21 (DE3)
T3 sequence (P31133 27-370 S38T/S87Y/F88A/A182D/D247S/F276W/L348Q): T1 sequence (P31133 27-370 S38T/D39E/S87Y/A182D/F276W/L348Q) with E13D, F62A, D221S
Procedure: as §1

PotF/D–E39D–F88L = target: T4, PotF/D–E39D–F88L (Escherichia coli, UniProt P31133, A182D/D247S/F276W/F88L/L348Q/S38T/S87Y); assay: ITC, PotF/D–E39D–F88L; format: binding; settings: 293 K
T4 construct: without the N-terminal signal peptide; made in house; host or cells: E. coli BL21 (DE3)
T4 sequence (P31133 27-370 S38T/S87Y/F88L/A182D/D247S/F276W/L348Q): T1 sequence (P31133 27-370 S38T/D39E/S87Y/A182D/F276W/L348Q) with E13D, F62L, D221S
Procedure: as §1

PotF/D = target: T5, PotF/D (Escherichia coli, UniProt P31133, A182D/D247S/D39E/F276W/L348Q/S38T/S87Y); assay: ITC, PotF/D (PotF_SPD; seven PotD binding pocket residues grafted onto PotF); settings: 293 K
T5 construct: without the N-terminal signal peptide; made in house; host or cells: E. coli BL21 (DE3)
T5 sequence (P31133 27-370 S38T/D39E/S87Y/A182D/D247S/F276W/L348Q): T1 sequence (P31133 27-370 S38T/D39E/S87Y/A182D/F276W/L348Q) with D221S
Procedure: as §1

PotD = settings: cited from earlier work
[1] = ITC, 50 mM Tris pH 8, 300 mM NaCl, biological triplicates

Structure (SMILES): NCCCCNCCCN [SPD, spermidine]
- n (PotF/D–S247D; ITC binding stoichiometry): 0.94 ± 0.01
- ΔG (PotF/D–S247D; ITC): -6.77 ± 0.18 kcal/mol
- ΔH (PotF/D–S247D; ITC): -6.76 ± 0.08 kcal/mol
- −TΔS (PotF/D–S247D; ITC): -0.01 ± 0.25 kcal/mol
- Kd (PotF/D–S247D; [1]): ~9.4 µM and 9.4 µM and 9.43 µM
- n (PotF/D–E39D–Y87S–F88Y; ITC binding stoichiometry): 0.99 ± 0.02
- ΔG (PotF/D–E39D–Y87S–F88Y; ITC): -7.09 ± 0.15 kcal/mol
- ΔH (PotF/D–E39D–Y87S–F88Y; ITC): -7.81 ± 0.21 kcal/mol
- −TΔS (PotF/D–E39D–Y87S–F88Y; ITC): 0.71 ± 0.32 kcal/mol
- Kd (PotF/D–E39D–Y87S–F88Y; [1]): ~5.3 µM and 5.3 µM and 5.32 µM
- n (PotF/D–E39D–F88A; ITC binding stoichiometry): 0.98 ± 0.03
- ΔG (PotF/D–E39D–F88A; ITC): -6.73 ± 0.03 kcal/mol
- ΔH (PotF/D–E39D–F88A; ITC): -12.22 ± 0.35 kcal/mol
- −TΔS (PotF/D–E39D–F88A; ITC): 5.49 ± 0.36 kcal/mol
- Kd (PotF/D–E39D–F88A; [1]): 9.6 ± 0.54 µM
- n (PotF/D–E39D–F88L; ITC binding stoichiometry): 1.03 ± 0.01
- ΔG (PotF/D–E39D–F88L; ITC): -6.71 ± 0.03 kcal/mol
- ΔH (PotF/D–E39D–F88L; ITC): -12.31 ± 0.11 kcal/mol
- −TΔS (PotF/D–E39D–F88L; ITC): 5.60 ± 0.13 kcal/mol
- Kd (PotF/D–E39D–F88L; [1]): ~9.9 µM and 9.9 µM
- n (PotF/D; ITC binding stoichiometry): 0.94 ± 0.02
- ΔG (PotF/D; ITC): -5.94 ± 0.04 kcal/mol
- ΔH (PotF/D; ITC): -9.30 ± 0.20 kcal/mol
- −TΔS (PotF/D; ITC): 3.36 ± 0.24 kcal/mol
- Kd (PotF/D; [1]): ~37 µM and 37.3 µM
- ΔG (PotD; ITC): -11.13 ± 0.12 kcal/mol
- ΔH (PotD; ITC): -16.40 ± 1.4 kcal/mol
- −TΔS (PotD; ITC): 5.24 ± 1.39 kcal/mol
- Kd (PotD): ~0.006 µM
